What was measured:
[1] = biological target: T1, Cannabinoid receptor 2 (Homo sapiens, UniProt P34972); experiment: Displacement of [3H]CP55940 from beta-galactosidase reporter fused human CB2 receptor expressed in CHOK1 cell membranes at 1 uM after 1 hr by scintillation spectrometric analysis
[2] = biological target: T2, Cannabinoid receptor 1 (Homo sapiens, UniProt P21554); experiment: Displacement of [3H]CP55940 from beta-galactosidase reporter fused human CB1 receptor expressed in CHOK1 cell membranes at 1 uM after 1 hr by scintillation spectrometric analysis relative to control
T2 sequence (P21554 whole entry, the tested form may be a part): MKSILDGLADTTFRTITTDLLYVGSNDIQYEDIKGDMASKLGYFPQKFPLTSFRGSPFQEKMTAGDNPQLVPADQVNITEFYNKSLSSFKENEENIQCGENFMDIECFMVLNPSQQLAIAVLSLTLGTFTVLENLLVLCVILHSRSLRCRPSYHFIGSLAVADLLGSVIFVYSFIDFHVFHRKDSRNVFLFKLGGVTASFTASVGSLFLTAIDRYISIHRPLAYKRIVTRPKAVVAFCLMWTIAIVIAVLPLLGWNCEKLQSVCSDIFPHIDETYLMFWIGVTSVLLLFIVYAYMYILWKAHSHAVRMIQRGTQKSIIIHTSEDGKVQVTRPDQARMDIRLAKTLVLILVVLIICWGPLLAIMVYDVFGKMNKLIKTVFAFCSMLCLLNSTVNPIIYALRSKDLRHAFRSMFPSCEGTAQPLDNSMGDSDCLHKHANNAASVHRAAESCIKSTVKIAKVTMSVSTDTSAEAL

[3] = biological target: T1, Cannabinoid receptor 2; experiment: Displacement of [3H]CP55940 from beta-galactosidase reporter fused human CB2 receptor expressed in CHOK1 cell membranes after 1 hr by scintillation spectrometric analysis
[4] = biological target: T2, Cannabinoid receptor 1; experiment: biochemical

T1 sequence (P34972 whole entry, the tested form may be a part): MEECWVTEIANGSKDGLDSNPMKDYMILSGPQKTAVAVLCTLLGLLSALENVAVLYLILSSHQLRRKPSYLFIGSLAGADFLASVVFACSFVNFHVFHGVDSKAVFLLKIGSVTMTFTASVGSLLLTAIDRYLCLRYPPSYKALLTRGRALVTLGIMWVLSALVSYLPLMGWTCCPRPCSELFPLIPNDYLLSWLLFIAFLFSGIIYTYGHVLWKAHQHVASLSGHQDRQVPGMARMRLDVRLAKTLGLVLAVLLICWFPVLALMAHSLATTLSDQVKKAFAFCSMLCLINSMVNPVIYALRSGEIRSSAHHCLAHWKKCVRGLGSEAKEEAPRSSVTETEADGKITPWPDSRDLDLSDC

## O=C(CCc1nnc(-c2ccc(Br)cc2F)o1)Nc1ccc2c(c1)c1ccccc1n2CCO
[1]
  inhibition: < 50%

## O=C(CCc1nc(-c2ccc(Br)cc2F)no1)Nc1ccc2c(c1)c1ccccc1n2CCF
[2]
  inhibition: -5%

## O=C(CCc1nnc(-c2ccc(Br)cc2F)o1)Nc1ccc2c(c1)c1ccccc1n2CCF
[3]
  Ki: 0.318 µM
[2]
  inhibition: -8%
[1]
  inhibition: > 50%

## O=C(CCc1nnc(-c2ccc(F)cc2Br)o1)Nc1ccc2c(c1)c1ccccc1n2CCF
[3]
  Ki: 0.025 µM
[2]
  inhibition: 22%
[1]
  inhibition: > 50%

## CCCCCCC(C)(C)c1cc(O)c2c(c1)OC(C)(C)[C@@H]1CC=C(CO)C[C@@H]21
[4]
  Ki: 0.00955 µM

## N#Cc1cc(F)ccc1-c1nnc(CCC(=O)Nc2ccc3c(c2)c2ccccc2n3CCF)o1
[3]
  Ki: 0.219 µM
[2]
  inhibition: -1%
[1]
  inhibition: > 50%

## O=C(CCc1nnc(-c2ccc(F)cc2Br)o1)Nc1ccc2c(c1)c1ccccc1n2CCO
[1]
  inhibition: < 50%

## N#Cc1cc(F)ccc1-c1nnc(CCC(=O)Nc2ccc3c(c2)c2ccccc2n3CCO)o1
[1]
  inhibition: < 50%

## N#Cc1cc(F)ccc1-c1noc(CCC(=O)Nc2ccc3c(c2)c2ccccc2n3CCF)n1
[2]
  inhibition: -8%
